# Molecular target: MASP-2 CCP2-SP (Homo sapiens (Human), UniProt O00187)
# Assay: MASP-2 co-crystallization, X-ray crystallography and structure analysis (H-bonds, van der Waals contacts);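 as to Ligand-pharmacophore element distance, pharmacophore element C2: distance from averaged pharmacophore element to bound ligand; missing value means element absent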;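 as to Ligand-pharmacophore element distance, pharmacophore element C3: distance from averaged pharmacophore element to bound ligand; missing value means element absent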;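 as to Ligand-pharmacophore element distance, pharmacophore element C4: distance from averaged pharmacophore element to bound ligand; missing value means element absent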;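 as to Ligand-pharmacophore element distance, pharmacophore element C5: distance from averaged pharmacophore element to bound ligand; missing value means element absent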
# Parameters: van der Waals contact distance, MASP-2 HIS 483 atom CD2 / van der Waals contact distance, MASP-2 HIS 483 atom NE2 / van der Waals contact distance, SER 654 C to compound atom / van der Waals contact distance, SER 654 O to compound atom / van der Waals contact distance, TRP 655 C to compound atom / van der Waals contact distance, MASP-2 GLY 528 atom CA / van der Waals contact distance TRP 655 atom CZ3 / van der Waals contact distance TRP 655 atom N / van der Waals contact distance TRP 655 atom CE3 / van der Waals contact distance GLY 656 atom C / van der Waals contact distance GLY 656 atom CA / van der Waals contact distance GLY 656 atom O / van der Waals contact distance, MASP-2 TYR 607 atom CD1 / van der Waals contact distance, MASP-2 PRO 606 atom O / d(C3,CA1) / d(CA1,N1)2 / d(H4,O1) / d(H4,O2) / d(O1,O2) / d(CA1,O2) / d(CA6,O1) / d(CA6,O2) / d(CA1,C5) / d(O2,H3) / d(N2,C2) / d(CA5,N2) / d(N2,C4) / d(N2,C6) / d(N2,CA3) / d(N2,O3) / d(O4,H2): unit not given beside the values
# Details: for Ligand-pharmacophore element distance, pharmacophore element C2 / Ligand-pharmacophore element distance, pharmacophore element C3 / Ligand-pharmacophore element distance, pharmacophore element C4 / Ligand-pharmacophore element distance, pharmacophore element C5 / Ligand-pharmacophore element distance, pharmacophore element C6 / Ligand-pharmacophore element distance, pharmacophore element C7 / Ligand-pharmacophore element distance, pharmacophore element CA1 / Ligand-pharmacophore element distance, pharmacophore element CA2 / Ligand-pharmacophore element distance, pharmacophore element CA3 / Ligand-pharmacophore element distance, pharmacophore element CA4 / Ligand-pharmacophore element distance, pharmacophore element CA5 / Ligand-pharmacophore element distance, pharmacophore element CA6: Table A4-1; for d(CA1,O1) / d(CA1,O2) / d(H4,O1) / d(H4,O2) / d(O1,O2) / d(CA1,N1): Table A5-1 pharmacophore: distance between elements, S2/S1 region; for a(CA1, O1, O2) / a(O1, O2, H4) / A(N1, CA1, O1) a): Table A6-1 pharmacophore angle; for Pharmacophore torsion angle a(H4, O1, O2, H3) / Pharmacophore torsion angle a(H4, O1, O2, N2) / Pharmacophore torsion angle a(O1, H4, O2, CA1) / Pharmacophore torsion angle a(N1, CA1, O2, H4) / Pharmacophore torsion angle a(O1, O2, N2, C2): Table A7-1; for Pharmacophore protein distance to MET_658 (first MET_658 column) / Pharmacophore protein distance to MET_658 (second MET_658 column) / Pharmacophore protein distance to GLY_528 / Pharmacophore protein distance to PHE_529 / Pharmacophore protein distance to PRO_608 / Pharmacophore protein distance to SER_611 / Pharmacophore protein distance to TRP_655: Table A8-6, nearest protein atom in cell to the left; for Pharmacophore protein distance to MET_658 (first MET_658 column): 6th residue column; for Pharmacophore protein distance to MET_658 (second MET_658 column): 9th residue column; for Pharmacophore protein distance to TRP_655: pharmacophore elements C6, CA3, O3, H1; for A(N1, CA1, O1) a): all compounds with protonatable center N1 except Methyl-amino-pyridine
# In short: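 Inhibitor complexes were obtained by soaking crystals of E. coli-expressed human MASP-2 CCP2-SP constructs, then flash-cooling in liquid nitrogen. Structures solved by molecular replacement (1Q3X search model) from synchrotron diffraction; where several poses existed, only one was analyzed, and nonbonded contacts listed can include H-bonds.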
# [1] = Table A5-2 pharmacophore distance, S3/S4 region
# [2] = between pharmacophore elements of the bound compound
# [3] = Table A7-2, between pharmacophore elements of the bound compound
# MASP-2 CCP2-SP, sequence (O00187 445-686): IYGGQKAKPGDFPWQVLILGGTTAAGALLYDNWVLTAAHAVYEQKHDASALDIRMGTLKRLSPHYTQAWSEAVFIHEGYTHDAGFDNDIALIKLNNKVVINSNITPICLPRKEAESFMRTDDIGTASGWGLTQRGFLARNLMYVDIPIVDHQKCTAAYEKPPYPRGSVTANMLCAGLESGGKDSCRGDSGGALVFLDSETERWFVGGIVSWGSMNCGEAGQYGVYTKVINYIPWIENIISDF
# MASP-2 CCP2-SP, sequence (O00187 364-432 partner): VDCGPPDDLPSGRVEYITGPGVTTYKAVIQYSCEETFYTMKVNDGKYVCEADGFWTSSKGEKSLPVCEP
structure (smiles),measurement,setting,value
C[C@H](NC(=O)[C@H]1C[C@@H](c2ccccc2)CN1)C(=O)NCc1ccc2c(N)nccc2c1.Cl.Cl [1089_A],"Ligand-pharmacophore element distance, pharmacophore element C2",,0
same,"Ligand-pharmacophore element distance, pharmacophore element C3",,0
same,"Ligand-pharmacophore element distance, pharmacophore element C4",,0
same,"Ligand-pharmacophore element distance, pharmacophore element C5",,0
same,"Ligand-pharmacophore element distance, pharmacophore element C6",,0
same,"Ligand-pharmacophore element distance, pharmacophore element C7",,0
same,"Ligand-pharmacophore element distance, pharmacophore element CA1",,1
same,"Ligand-pharmacophore element distance, pharmacophore element CA2",,0.89
same,"Ligand-pharmacophore element distance, pharmacophore element CA3",,0
same,"Ligand-pharmacophore element distance, pharmacophore element CA4",,0
same,"Ligand-pharmacophore element distance, pharmacophore element CA5",,0
same,"Ligand-pharmacophore element distance, pharmacophore element CA6",,0
same,"d(CA1,O1)",,5.75
same,"d(CA1,O2)",,5.19
same,"d(H4,O1)",,3.13
same,"d(H4,O2)",,3.70
same,"d(O1,O2)",,3.34
same,"d(N2,CA2)",[1],5.10
same,"d(O2,H3)",[1],5.94
same,"d(O2,N2)",[1],2.66
same,"a(CA1, O1, O2)",,98.23
same,"a(O1, O2, H4)",,122.16
same,"a(O1, O2, H3)",Table A6-2 pharmacophore angle,153.00
same,"a(O1, O2, N2)",Table A6-2 pharmacophore angle,141.72
same,"a(O2, N2, CA2)",Table A6-2 pharmacophore angle,154.37
same,"Pharmacophore torsion angle a(H4, O1, O2, H3)",[2],88.95
same,"Pharmacophore torsion angle a(H4, O1, O2, N2)",[2],−175.67
same,"Pharmacophore torsion angle a(O1, H4, O2, CA1)",[2],−95.88
same,"Pharmacophore torsion angle a(O1, O2, N2, CA2)",[3],137.41
same,Pharmacophore protein distance to MET_658 (first MET_658 column),,2.61
same,Pharmacophore protein distance to MET_658 (second MET_658 column),,3.31
same,Pharmacophore protein distance to GLY_528,,3.59
same,Pharmacophore protein distance to PHE_529,,2.81
same,Pharmacophore protein distance to PRO_608,,3.90
same,Pharmacophore protein distance to SER_611,,2.79
same,Pharmacophore protein distance to TRP_655,,3.57
C[C@H](NC(=O)[C@H]1C[C@@H](c2ccccc2)CN1)C(=O)NCc1ccc2c(N)nccc2c1.Cl.Cl [1089_B],"Ligand-pharmacophore element distance, pharmacophore element C2",,0
same,"Ligand-pharmacophore element distance, pharmacophore element C3",,0
same,"Ligand-pharmacophore element distance, pharmacophore element C4",,0
same,"Ligand-pharmacophore element distance, pharmacophore element C5",,0
same,"Ligand-pharmacophore element distance, pharmacophore element C6",,0
same,"Ligand-pharmacophore element distance, pharmacophore element C7",,0
same,"Ligand-pharmacophore element distance, pharmacophore element CA1",,0.99
same,"Ligand-pharmacophore element distance, pharmacophore element CA2",,0
same,"Ligand-pharmacophore element distance, pharmacophore element CA3",,0
same,"Ligand-pharmacophore element distance, pharmacophore element CA4",,0
same,"Ligand-pharmacophore element distance, pharmacophore element CA5",,1.16
same,"Ligand-pharmacophore element distance, pharmacophore element CA6",,0
same,"d(CA1,O1)",,5.68
same,"d(CA1,O2)",,5.17
same,"d(H4,O1)",,3.14
same,"d(H4,O2)",,3.69
same,"d(O1,O2)",,3.33
same,"d(CA5,N2)",[1],5.10
same,"d(O2,H3)",[1],5.91
same,"d(O2,N2)",[1],2.70
same,"a(CA1, O1, O2)",,99.20
same,"a(O1, O2, H4)",,122.31
same,"a(O1, O2, H3)",Table A6-2 pharmacophore angle,152.83
same,"a(O1, O2, N2)",Table A6-2 pharmacophore angle,141.07
same,"Pharmacophore torsion angle a(H4, O1, O2, H3)",[2],89.27
same,"Pharmacophore torsion angle a(H4, O1, O2, N2)",[2],−178.39
same,"Pharmacophore torsion angle a(O1, H4, O2, CA1)",[2],−94.63
same,"Pharmacophore torsion angle a(O1, O2, N2, CA5)",[3],133.38
same,Pharmacophore protein distance to MET_658 (first MET_658 column),,2.61
same,Pharmacophore protein distance to MET_658 (second MET_658 column),,3.31
same,Pharmacophore protein distance to GLY_528,,3.59
same,Pharmacophore protein distance to PHE_529,,2.81
same,Pharmacophore protein distance to PRO_608,,3.90
same,Pharmacophore protein distance to SER_611,,2.79
same,Pharmacophore protein distance to TRP_655,,3.57
C[C@H](NC(=O)[C@H]1Cc2c([nH]c3ccccc23)CN1)C(=O)NCc1ccc(C(=N)N)cc1.Cl.Cl [1097_1],"Ligand-pharmacophore element distance, pharmacophore element C2",,0.69
same,"Ligand-pharmacophore element distance, pharmacophore element C3",,0
same,"Ligand-pharmacophore element distance, pharmacophore element C4",,0
same,"Ligand-pharmacophore element distance, pharmacophore element C5",,0
same,"Ligand-pharmacophore element distance, pharmacophore element C6",,0
same,"Ligand-pharmacophore element distance, pharmacophore element C7",,0
same,"Ligand-pharmacophore element distance, pharmacophore element CA1",,0.29
same,"Ligand-pharmacophore element distance, pharmacophore element CA2",,0
same,"Ligand-pharmacophore element distance, pharmacophore element CA3",,0
same,"Ligand-pharmacophore element distance, pharmacophore element CA4",,0
same,"Ligand-pharmacophore element distance, pharmacophore element CA5",,0.98
same,"Ligand-pharmacophore element distance, pharmacophore element CA6",,0
same,"d(CA1,N1)",,3.53
same,"d(CA1,O1)",,4.28
same,"d(CA1,O2)",,4.28
same,"d(H4,O1)",,3.88
same,"d(H4,O2)",,3.35
same,"d(O1,O2)",,3.32
same,"d(CA5,N2)",[1],4.50
same,"d(N2,C2)",[1],1.42
same,"d(O2,H3)",[1],4.58
same,"d(O2,N2)",[1],2.81
same,"a(CA1, O1, O2)",,112.80
same,"a(O1, O2, H4)",,125.81
same,"A(N1, CA1, O1) a)",,162.99
same,"a(O1, O2, H3)",Table A6-2 pharmacophore angle,152.91
same,"a(O1, O2, N2)",Table A6-2 pharmacophore angle,134.93
same,"a(O2, N2, C2)",Table A6-2 pharmacophore angle,125.76
same,"Pharmacophore torsion angle a(H4, O1, O2, H3)",[2],86.65
same,"Pharmacophore torsion angle a(H4, O1, O2, N2)",[2],121.05
same,"Pharmacophore torsion angle a(N1, CA1, O2, H4)",[2],−97.71
same,"Pharmacophore torsion angle a(O1, H4, O2, CA1)",[2],−66.34
same,"Pharmacophore torsion angle a(O1, O2, N2, C2)",[2],136.92
same,"Pharmacophore torsion angle a(O1, O2, N2, CA5)",[3],148.15
same,Pharmacophore protein distance to MET_658 (first MET_658 column),,2.40
same,Pharmacophore protein distance to MET_658 (second MET_658 column),,3.49
same,Pharmacophore protein distance to GLY_528,,3.46
same,Pharmacophore protein distance to PHE_529,,2.89
same,Pharmacophore protein distance to PRO_608,,3.89
same,Pharmacophore protein distance to SER_611,,3.04
same,Pharmacophore protein distance to TRP_655,,3.24
C[C@H](NC(=O)[C@H]1Cc2c([nH]c3ccccc23)CN1)C(=O)NCc1ccc(C(=N)N)cc1.Cl.Cl [1097_2],"Ligand-pharmacophore element distance, pharmacophore element C2",,0.72
same,"Ligand-pharmacophore element distance, pharmacophore element C3",,0
same,"Ligand-pharmacophore element distance, pharmacophore element C4",,0
same,"Ligand-pharmacophore element distance, pharmacophore element C5",,0
same,"Ligand-pharmacophore element distance, pharmacophore element C6",,0
same,"Ligand-pharmacophore element distance, pharmacophore element C7",,0
same,"Ligand-pharmacophore element distance, pharmacophore element CA1",,0.32
same,"Ligand-pharmacophore element distance, pharmacophore element CA2",,0
same,"Ligand-pharmacophore element distance, pharmacophore element CA3",,0
same,"Ligand-pharmacophore element distance, pharmacophore element CA4",,0
same,"Ligand-pharmacophore element distance, pharmacophore element CA5",,1.1
same,"Ligand-pharmacophore element distance, pharmacophore element CA6",,0
same,"d(CA1,N1)",,3.52
same,"d(CA1,O1)",,4.35
same,"d(CA1,O2)",,4.09
same,"d(H4,O1)",,4.74
same,"d(H4,O2)",,4.28
same,"d(O1,O2)",,3.33
same,"d(CA5,N2)",[1],4.50
same,"d(N2,C2)",[1],1.42
same,"d(O2,H3)",[1],4.29
same,"d(O2,N2)",[1],2.81
same,"a(CA1, O1, O2)",,109.11
same,"a(O1, O2, H4)",,137.06
same,"A(N1, CA1, O1) a)",,163.92
same,"a(O1, O2, H3)",Table A6-2 pharmacophore angle,153.30
same,"a(O1, O2, N2)",Table A6-2 pharmacophore angle,137.12
same,"a(O2, N2, C2)",Table A6-2 pharmacophore angle,128.45
same,"Pharmacophore torsion angle a(H4, O1, O2, H3)",[2],91.00
same,"Pharmacophore torsion angle a(H4, O1, O2, N2)",[2],129.42
same,"Pharmacophore torsion angle a(N1, CA1, O2, H4)",[2],−142.69
same,"Pharmacophore torsion angle a(O1, H4, O2, CA1)",[2],−71.28
same,"Pharmacophore torsion angle a(O1, O2, N2, C2)",[2],125.27
same,"Pharmacophore torsion angle a(O1, O2, N2, CA5)",[3],137.08
same,Pharmacophore protein distance to MET_658 (first MET_658 column),,2.55
same,Pharmacophore protein distance to MET_658 (second MET_658 column),,3.13
same,Pharmacophore protein distance to GLY_528,,3.52
same,Pharmacophore protein distance to PHE_529,,3.02
same,Pharmacophore protein distance to PRO_608,,3.56
same,Pharmacophore protein distance to SER_611,,3.29
same,Pharmacophore protein distance to TRP_655,,3.09
